Results taken from patent publication US20220054469A1, “FARNESOID X RECEPTOR AGONISTS AND USES THEREOF” (Metacrine, Inc., priority 2018, published 2022).

Target: T1, hFXR (Homo sapiens, UniProt Q96RI1)
T1 construct: expressed in transfected cells; host or cells: CV-1 cells
T1 sequence (Q96RI1 1-486): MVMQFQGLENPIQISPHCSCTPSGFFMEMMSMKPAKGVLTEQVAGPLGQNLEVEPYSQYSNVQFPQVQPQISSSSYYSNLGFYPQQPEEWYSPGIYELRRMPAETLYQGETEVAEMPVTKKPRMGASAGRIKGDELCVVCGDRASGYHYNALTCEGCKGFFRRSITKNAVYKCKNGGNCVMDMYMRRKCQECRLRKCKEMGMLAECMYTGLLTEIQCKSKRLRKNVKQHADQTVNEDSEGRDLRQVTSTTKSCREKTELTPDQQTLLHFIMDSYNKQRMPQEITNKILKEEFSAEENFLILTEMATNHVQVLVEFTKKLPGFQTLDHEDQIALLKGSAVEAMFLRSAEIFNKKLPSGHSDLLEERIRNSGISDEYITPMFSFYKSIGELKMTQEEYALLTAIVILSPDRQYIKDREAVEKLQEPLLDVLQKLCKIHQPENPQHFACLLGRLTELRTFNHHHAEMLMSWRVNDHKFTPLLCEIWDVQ
T1 sequence (P19793 1-462 partner): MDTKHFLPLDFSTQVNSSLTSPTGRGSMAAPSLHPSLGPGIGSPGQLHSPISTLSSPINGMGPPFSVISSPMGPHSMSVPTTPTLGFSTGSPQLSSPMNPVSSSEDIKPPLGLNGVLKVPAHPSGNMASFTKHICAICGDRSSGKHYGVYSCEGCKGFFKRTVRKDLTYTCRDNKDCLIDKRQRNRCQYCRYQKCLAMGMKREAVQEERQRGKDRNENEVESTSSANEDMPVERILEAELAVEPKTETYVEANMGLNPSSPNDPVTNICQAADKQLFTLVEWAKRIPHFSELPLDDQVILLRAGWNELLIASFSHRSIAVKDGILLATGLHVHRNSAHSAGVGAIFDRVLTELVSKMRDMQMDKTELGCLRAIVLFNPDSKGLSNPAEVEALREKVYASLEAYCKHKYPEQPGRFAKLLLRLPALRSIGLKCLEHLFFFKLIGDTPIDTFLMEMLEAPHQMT
Assay: In Vitro FXR Assay (TK)
Format: cell-based
Details: CV-1 cells transfected with hFXR, hRXR, TK-ECRE-luc and pCMX-YFP; incubated with compound for 18 hrs; luminescence
Protocol: Example B-1: In Vitro FXR Assay (TK)
CV-1 cells were seeded at a density of 2,000,000 cells in a T175 flask with DMEM+10% charcoal double-stripped FBS and incubated at 37° C. in 5% CO2 for 18 h (O/N).
After 18 h of incubation, the medium in the T175 flask was changed with fresh DMEM+10% charcoal super-stripped serum. In a polypropylene tube, 2500 μL OptiMEM (Life Technologies, Cat #31985-062) was combined with expression plasmids for hFXR, hRXR, TK-ECRE-luc and pCMX-YFP. The tube was then briefly vortexed and incubated at room temperature for 5 minutes. Transfection reagent (X-tremeGENE HP from Roche, Cat #06 366 236 001) was added to the OptiMEM/plasmid mixture vortexed and incubated at room temperature for 20 minutes. Following incubation, the transfection reagent/DNA mixture complex was added to cells in the T175 flask and the cells were incubated at 37° C. in 5% CO2 for 18 h (O/N).
Compounds were serially diluted in DMSO and added to transfected CV-1 cells. The cells were then incubated for 18 hrs. The next day cells were lysed and examined for luminescence.

EC50 [nM] | Structure (SMILES)
≤ 50 | COc1ncc(C23CCC(CN(c4cc(-c5cnn(C(C)(C)C)c5)ccn4)C(=O)[C@H]4CC[C@H](CC(=O)O)CC4)(CC2)CC3)cc1C [Compound 4.13, trans-2-(4-((4-(1-(tert-Butyl)-1H-pyrazol-4-yl)pyridin-2-yl)((4-(6-methoxy-5-methylpyridin-3-yl)bicyclo[2.2.2]octan-1-yl)methyl)carbamoyl)cyclohexyl)acetic acid]
≤ 50 | COc1ccc(C23CCC(CN(c4cc(-c5cnc(C6CC6)s5)ccn4)C(=O)[C@H]4CC[C@H](CC(=O)O)CC4)(CC2)CC3)cc1C [Compound 4.15, trans-2-(4-((4-(2-Cyclopropylthiazol-5-yl)pyridin-2-yl)((4-(4-methoxy-3-methylphenyl)bicyclo[2.2.2]octan-1-yl)methyl)carbamoyl)cyclohexyl)acetic acid]
≤ 50 | COc1ccc(C23CCC(CN(c4cc(-c5cnc(C(C)(C)C)s5)ccn4)C(=O)[C@H]4CC[C@H](CC(=O)O)CC4)(CC2)CC3)cc1C [Compound 4.17, trans-2-(4-((4-(2-(tert-Butyl)thiazol-5-yl)pyridin-2-yl)((4-(4-methoxy-3-methylphenyl)bicyclo[2.2.2]octan-1-yl)methyl)carbamoyl)cyclohexyl)acetic acid]
≤ 50 | COc1ccc(C23CCC(CN(c4cc(-c5coc(C(C)(C)C)n5)ccn4)C(=O)[C@H]4CC[C@H](CC(=O)O)CC4)(CC2)CC3)cc1C [Compound 4.18, trans-2-(4-((4-(2-(tert-Butyl)oxazol-4-yl)pyridin-2-yl)((4-(4-methoxy-3-methylphenyl)bicyclo[2.2.2]octan-1-yl)methyl)carbamoyl)cyclohexyl)acetic acid]
50 to 1000 | COc1ccc(C23CCC(CN(c4cc(-c5nnc(C(C)C)o5)ccn4)C(=O)[C@H]4CC[C@H](CC(=O)O)CC4)(CC2)CC3)cc1C [Compound 4.19, trans-2-(4-((4-(5-lsopropyl-1,3,4-oxadiazol-2-yl)pyridin-2-yl)((4-(4-methoxy-3-methylphenyl)bicyclo[2.2.2]octan-1-yl)methyl)carbamoyl)cyclohexyl)acetic acid]
≤ 50 | COc1ccc(C23CCC(CN(c4cccc(-n5cnc(C6CC6)n5)c4)C(=O)[C@H]4CC[C@H](CC(=O)O)CC4)(CC2)CC3)cc1C [Compound 4.28, trans-2-(4-((3-(3-Cyclopropyl-1H-1,2,4-triazol-1-yl)phenyl)((4-(4-methoxy-3-methylphenyl)bicyclo[2.2.2]octan-1-yl)methyl)carbamoyl)cyclohexyl)acetic acid]
≤ 50 | COc1ccc(C23CCC(CN(c4cccc(-n5cnc(C6CC6)c5)c4)C(=O)[C@H]4CC[C@H](CC(=O)O)CC4)(CC2)CC3)cc1C [Compound 4.29, trans-2-(-4-((3-(4-Cyclopropyl-1H-imidazol-1-yl)phenyl)((4-(4-methoxy-3-methylphenyl)bicyclo[2.2.2]octan-1-yl)methyl)carbamoyl)cyclohexyl)acetic acid]
50 to 1000 | COc1ccc(C23CCC(CN(c4cc(-c5cnn(C(C)C)c5)ccn4)C(=O)[C@H]4CC[C@@H](CC(=O)O)CC4)(CC2)CC3)cc1C [Compound 5.02, cis-2-(4-((4-(1-Isopropyl-1H-pyrazol-4-yl)pyridin-2-yl)((4-(4-methoxy-3-methylphenyl)bicyclo[2.2.2]octan-1-yl)methyl)carbamoyl)cyclohexyl)acetic acid]

Further lines, the molecule ahead of its results:

Structure (SMILES) | EC50 [nM]
CC(C)n1cc(-c2cccc(N(CC34CCC(c5ccc(N(C)C)nc5)(CC3)CC4)C(=O)[C@H]3CC[C@H](CC(=O)O)CC3)c2)cn1 [Compound 4.14, trans-2-(4-(((4-(6-(Dimethylamino)pyridin-3-yl)bicyclo[2.2.2]octan-1-yl)methyl)(3-(1-isopropyl-1H-pyrazol-4-yl)phenyl)carbamoyl)cyclohexyl)acetic acid] | ≤ 50
COc1ccc(C23CCC(CN(c4cc(-c5cnc(C(C)C)s5)ccn4)C(=O)[C@H]4CC[C@H](CC(=O)O)CC4)(CC2)CC3)cc1C [Compound 4.16, trans-2-(4-((4-(2-Isopropylthiazol-5-yl)pyridin-2-yl)((4-(4-methoxy-3-methylphenyl)bicyclo[2.2.2]octan-1-yl)methyl)carbamoyl)cyclohexyl)acetic acid] | ≤ 50
COc1ccc(C23CCC(CN(c4cc(-c5nc(C(C)C)no5)ccn4)C(=O)[C@H]4CC[C@H](CC(=O)O)CC4)(CC2)CC3)cc1C [Compound 4.20, trans-2-(4-((4-(3-Isopropyl-1,2,4-oxadiazol-5-yl)pyridin-2-yl)((4-(4-methoxy-3-methylphenyl)bicyclo[2.2.2]octan-1-yl)methyl)carbamoyl)cyclohexyl)acetic acid] | 50 to 1000
COc1ccc(C23CCC(CN(c4cc(-c5noc(C(C)C)n5)ccn4)C(=O)[C@H]4CC[C@H](CC(=O)O)CC4)(CC2)CC3)cc1C [Compound 4.21, trans-2-(4-((4-(5-lsopropyl-1,2,4-oxadiazol-3-yl)pyridin-2-yl)((4-(4-methoxy-3-methylphenyl)bicyclo[2.2.2]octan-1-yl)methyl)carbamoyl)cyclohexyl)acetic acid] | 50 to 1000
COc1ccc(C23CCC(CN(c4cc(-n5cc(C(C)C)cn5)ccn4)C(=O)[C@H]4CC[C@H](CC(=O)O)CC4)(CC2)CC3)cc1C [Compound 4.22, trans-2-(4-((4-(4-Isopropyl-1H-pyrazol-1-yl)pyridin-2-yl)((4-(4-methoxy-3-methylphenyl)bicyclo[2.2.2]octan-1-yl)methyl)carbamoyl)cyclohexyl)acetic acid] | 50 to 1000
COc1ccc(C23CCC(CN(c4cc(-c5ccn(C(C)C)n5)ccn4)C(=O)[C@H]4CC[C@H](CC(=O)O)CC4)(CC2)CC3)cc1C [Compound 4.23, trans-2-(4-((4-(1-Isopropyl-1H-pyrazol-3-yl)pyridin-2-yl)((4-(4-methoxy-3-methylphenyl)bicyclo[2.2.2]octan-1-yl)methyl)carbamoyl)cyclohexyl)acetic acid] | ≤ 50
COc1ccc(C23CCC(CN(c4cc(-n5ccc(C(C)C)n5)ccn4)C(=O)[C@H]4CC[C@H](CC(=O)O)CC4)(CC2)CC3)cc1C [Compound 4.24, trans-2-(4-((4-(3-Isopropyl-1H-pyrazol-1-yl)pyridin-2-yl)((4-(4-methoxy-3-methylphenyl)bicyclo[2.2.2]octan-1-yl)methyl)carbamoyl)cyclohexyl)acetic acid] | 50 to 1000
COc1ccc(C23CCC(CN(c4cc(-n5cnc(C(C)C)c5)ccn4)C(=O)[C@H]4CC[C@H](CC(=O)O)CC4)(CC2)CC3)cc1C [Compound 4.25, trans-2-(4-((4-(4-Isopropyl-1H-imidazol-1-yl)pyridin-2-yl)((4-(4-methoxy-3-methylphenyl)bicyclo[2.2.2]octan-1-yl)methyl)carbamoyl)cyclohexyl)acetic acid] | 50 to 1000
COc1ccc(C23CCC(CN(c4cc(-n5cnc(C(C)C)n5)ccn4)C(=O)[C@H]4CC[C@H](CC(=O)O)CC4)(CC2)CC3)cc1C [Compound 4.26, trans-2-(4-((4-(3-Isopropyl-1H-1,2,4-triazol-1-yl)pyridin-2-yl)((4-(4-methoxy-3-methylphenyl)bicyclo[2.2.2]octan-1-yl)methyl)carbamoyl)cyclohexyl)acetic acid] | 50 to 1000
COc1ccc(C23CCC(CN(c4cc(-n5cnc(C6CC6)n5)ccn4)C(=O)[C@H]4CC[C@H](CC(=O)O)CC4)(CC2)CC3)cc1C [Compound 4.27, trans-2-(4-((4-(3-Cyclopropyl-1H-1,2,4-triazol-1-yl)pyridin-2-yl)((4-(4-methoxy-3-methylphenyl)bicyclo[2.2.2]octan-1-yl)methyl)carbamoyl)cyclohexyl)acetic acid] | ≤ 50
COc1ccc(C23CCC(CN(c4cccc(-c5nnc(C6CC6)o5)c4)C(=O)[C@H]4CC[C@H](CC(=O)O)CC4)(CC2)CC3)cc1C [Compound 4.30, trans-2-(-4-((3-(5-Cyclopropyl-1,3,4-oxadiazol-2-yl)phenyl)((4-(4-methoxy-3-methylphenyl)bicyclo[2.2.2]octan-1-yl)methyl)carbamoyl)cyclohexyl)acetic acid] | 50 to 1000
